{
  "source": "patent US12390423B2",
  "about": "(priority 2019, dated 2025)",
  "tested_on": "INS-1 (832/13) cells",
  "assay": "Glucose stimulated insulin secretion (GSIS) in INS-1 (832/13) cells",
  "assay_type": "cell-based, rat",
  "details": "0.5 mM palmitate 24 h, AvoB 25 μM, ETO 100 μM",
  "procedure": "To measure glucose stimulated insulin secretion (GSIS) in INS-1(832/13) cells a standard protocol was adopted. […] After treatments were complete, cell media was replaced with KRB (Krebs-Ringer Bicarbonate) buffer. Cells were then challenged with 3 mM glucose for 2 h in KRB buffer after which 500 μL KRB buffer was collected and frozen in −80° C. until analysis. For another 2 h, cells were challenged with 16 mM glucose after which 500 μL KRB was collected and frozen in −80° C. until analysis. The amount of insulin released into the KRB buffer was determined by an ELISA kit (Millipore, Rat/Mouse Insulin Detection kit). Data was normalized for cellular protein content, as determined by the Micro-BCA Protein Assay kit. The glucose-dependent insulin secretory index (GSIS16/3), defined as the ratio between the insulin secretion at 16 mM (stimulatory, surrogate to postprandial glucose levels) and 3 mM (basal, surrogate to fasting glucose levels) glucose was also calculated.",
  "note": "“Also recorded” adds a separate entry of the source.",
  "data": [
    {"substance": "avocatin B [AvoB]", "values": [
      {"measurement": "Glucose stimulated insulin secretion (GSIS)", "value": "rescued; also recorded: GSIS was higher"}
    ]}
  ]
}
